Results taken from ChEMBL document CHEMBL3430912, “GSK Tres Cantos Anti-Kinetoplastid Screening (TCAKS) Data”.
pIC50: −log10 of the molar value.

What was measured:
Trypanosoma cruzi [1] = experiment: GSK_TCAKS: pIC50 Trypanosoma cruzi viability assay using beta-GAL activity. This assay was run at single shot at 5uM compound concentration per well. The biological reagents consisted of NIH-3T3 host cells and trypomastigotes parasitic cells; both cell types were set to a 3.3 * 10^5 cells/mL dilution in assay DMEM by means of a CASY cell counter device using a 60um capillary. 6 uL of the mixture were dispensed per well (about 1 * 10^3 host-cells and 1 * 10^3 parasites) with a Multidrop Combi dispenser. […] In all wells, the percentage of DMSO never exceeded 0.5%. Plates incubated for four days at 37C, 5% CO2. The substrate used for the assay fluorescence intensity (FLINT) readout was resorufin-beta-D-galactopiranoside (Sigma-Aldrich) at 5uM per well. It was diluted in PBS supplemented with the soft detergent Igepal (Fluka).; type: functional, organism-based, Mus musculus; details: Tulahuen, NIH3T3
Trypanosoma cruzi [2] = experiment: (§1) GSK_TCAKS: pIC50 Trypanosoma cruzi Imaging: Infected Cells. […] Cells were then washed once with PBS before infection. T. cruzi trypomastigotes, collected at days 5 to 8 after infection from LLC-MK2 parasite infected cultures, were allowed to swim out for 4h at 37C from a centrifuged pellet (2,500 rpm/10 min/room temperature). Trypomastigotes were then collected and counted in a CASY Cell Counter. Trypomastigotes, in supplemented DMEM, were added to H9c2 cultures in a multiplicity of infection of 1 and incubated for 18 h. Cells were washed once with PBS before incubation of the infected H9c2 monolayer with trypsin (Life-Technologies) to detach cells from the flask. Cells were counted in a CASY Cell Counter using a 150 um capillary and their density set at 5 * 10^4 cells per mL in supplemented assay DMEM. Infected H9c2 were dispensed into 384-well poly-lysine coated assay plates at 50uL per well using a Multidrop Combi dispenser. After seeding them, the plates were incubated at 37C, 5% CO2 for 72h. Cultures were then fixed and stained by addition of 50 uL of a solution containing 8% formaldehyde and 4 uM DRAQ5 DNA dye (BioStatus, UK) per well. […] Five images were collected per well for reliable statistical analysis. Automated image analysis was performed with a script developed on Acapella High Content Imaging and Analysis Software (PerkinElmer). Output: percentage of infected cells per well as a second infection marker.; type: functional, organism-based, Rattus norvegicus; details: H9c2, 4 h
Trypanosoma cruzi [3] = experiment: GSK_TCAKS: pIC50 Trypanosoma cruzi Imaging: Amastigotes/Cell. […] Cells were then washed once with PBS before infection. T. cruzi trypomastigotes, collected at days 5 to 8 after infection from LLC-MK2 parasite infected cultures, were allowed to swim out for 4h at 37C from a centrifuged pellet (2,500 rpm/10 min/room temperature). Trypomastigotes were then collected and counted in a CASY Cell Counter. Trypomastigotes, in supplemented DMEM, were added to H9c2 cultures in a multiplicity of infection of 1 and incubated for 18 h. Cells were washed once with PBS before incubation of the infected H9c2 monolayer with trypsin (Life-Technologies) to detach cells from the flask. Cells were counted in a CASY Cell Counter using a 150 um capillary and their density set at 5 * 10^4 cells per mL in supplemented assay DMEM. Infected H9c2 were dispensed into 384-well poly-lysine coated assay plates at 50uL per well using a Multidrop Combi dispenser. After seeding them, the plates were incubated at 37C, 5% CO2 for 72h. Cultures were then fixed and stained by addition of 50 uL of a solution containing 8% formaldehyde and 4 uM DRAQ5 DNA dye (BioStatus, UK) per well. […] Five images were collected per well for reliable statistical analysis. Automated image analysis was performed with a script developed on Acapella High Content Imaging and Analysis Software (PerkinElmer). Output: number of amastigotes per cell as infection level measurement.; type: functional, organism-based, Rattus norvegicus; details: H9c2, 4 h
Trypanosoma cruzi [4] = experiment: as §1, with “H2C9” for “Trypanosoma cruzi”, “H9c2 Host Cardiomyocytes.” for “Infected Cells.”, “Number” for “percentage”, “H9c2 Host Cardiomyocytes nuclei to determine drug-related cytotoxicity.” for “infected cells per well as a second infection marker.”; type: functional, organism-based, Rattus norvegicus; details: H9c2, 4 h
Leishmania donovani [5] = experiment: GSK_TCAKS: pIC50 Leishmania donovani viability assay using fluorescence intensity. Assay plates (1536-well) were prepared by adding 30nL per well of compound. For single shot assay, the final compound concentration was 5uM. […] Briefly, eGFP LdBOB axenic amastigotes were harvested, fixed and counted in a CASY cell counter (Roche-Applied Science). A final concentration of 1.5 * 10^5 cells per well were prepared in amastigote media containing 500 U/mL penicillin/streptomycin (Invitrogen) and 6uL was dispensed to each experimental well using a Multidrop Combi dispenser (Thermo Scientific). 6uL of assay media was dispensed to control columns used as reference for 100% compound response. Following incubation for 72 h at 37C, 5% CO2, 2 uL of resazurin was added to each well at a final concentration of 0.5 mM in phosphate buffered saline (PBS) with IGEPAL (Sigma-Aldrich), 0.05% (v/v).; type: functional, organism-based
Leishmania donovani [6] = experiment: (§2) GSK_TCAKS: pIC50 Leishmania donovani Imaging: Infected Macrophages. Assay plates (384-well) were prepared by adding 250nL of compound to each well. For single shot assay, the final compound concentration was 5 uM. […] Automated image analysis was performed with a script developed on Acapella High Content Imaging and Analysis Software (PerkinElmer). Output: Percent of infected macrophage cells were reported for each well.; type: functional, organism-based, Homo sapiens; details: THP-1
Leishmania donovani [7] = experiment: as §2, with “Amastigotes/Macrophages.” for “Infected Macrophages.”, “Average number” for “Percent”, “amastigotes per” for “infected”, “cell” for “cells”; type: functional, organism-based, Homo sapiens; details: THP-1
Leishmania donovani [8] = experiment: as §2, with “THP-1 Host” for “Infected”, “THP-1 cell count” for “Percent of infected macrophage cells”; type: functional, organism-based, Homo sapiens
[9] = test system: Trypanosoma brucei brucei; experiment: GSK_TCAKS: pIC50 Trypanosoma brucei viability assay using fluorescence intensity. Assay plates (1536-well) were prepared by dispensing 25nL of compound solution per well using an Echo acoustic dispenser (Labcyte).; type: functional, organism-based; details: Lister 427, 2 h
[10] = test system: Trypanosoma brucei brucei; experiment: GSK_TCAKS: pIC50 Trypanosoma brucei viability assay using luminiscence. Assay plates (1536-well) were prepared. T. brucei cultures were harvested and counted in a CASY cell counter. A parasite suspension was prepared at a final concentration of 5 * 10^4 cells/mL in complete HMI9 medium and 6uL was dispensed to all wells containing compounds using a Multidrop Combi dispenser. 6uL of HMI9 media with 0.4% DMSO were dispensed to control columns. Plates were incubated for 24 h at 37C, 5% CO2 then tempered for 10 min at room temperature. ATP content was quantified by adding 4 uL of CellTiter-Glo Reagent (Promega) according to the manufacturer's instructions. Luminescence was measured using a ViewLux.; type: functional, organism-based; details: Lister 427, CASY
[11] = GSK_TCAKS: pIC50 HepG2 human cell line viability assay using luminiscence. […] Seeding density was checked to ensure that new mono-layers were not more than 50% confluent at the time of harvesting. Cell suspension was added to 500 mL of the same medium at a final density of 1.2 * 10^5 cells/mL. This cell suspension was dispensed (25 uL, 3000 cells per well) into 384-well clear-bottom plates using a Multidrop Combi dispenser. Prior to addition of the cell suspension, the screening compounds (250 nL) were pre-dispensed into the plates with an Echo liquid handler. Plates were incubated for 48 h at 37C, 5% CO2. After incubation, plates equilibrated at room temperature for 30 min before proceeding to develop the luminescent signal. The signal developer, CellTiter-Glo Reagent, was allowed to equilibrate at room temperature for 30 min and added to the plates (25uL per well) using a Multidrop Combi dispenser. Plates were left for 10 min at room temperature for stabilization and then read using a ViewLux.; type: toxicity, cell-based
[12] = biological target: Sterol 14-alpha demethylase (Trypanosoma cruzi (strain CL Brener), UniProt Q7Z1V1); experiment: GSK_TCAKS: pIC50 CYP51 from Trypanosoma cruzi.; type: functional
Sequence of Sterol 14-alpha demethylase (Q7Z1V1 whole entry): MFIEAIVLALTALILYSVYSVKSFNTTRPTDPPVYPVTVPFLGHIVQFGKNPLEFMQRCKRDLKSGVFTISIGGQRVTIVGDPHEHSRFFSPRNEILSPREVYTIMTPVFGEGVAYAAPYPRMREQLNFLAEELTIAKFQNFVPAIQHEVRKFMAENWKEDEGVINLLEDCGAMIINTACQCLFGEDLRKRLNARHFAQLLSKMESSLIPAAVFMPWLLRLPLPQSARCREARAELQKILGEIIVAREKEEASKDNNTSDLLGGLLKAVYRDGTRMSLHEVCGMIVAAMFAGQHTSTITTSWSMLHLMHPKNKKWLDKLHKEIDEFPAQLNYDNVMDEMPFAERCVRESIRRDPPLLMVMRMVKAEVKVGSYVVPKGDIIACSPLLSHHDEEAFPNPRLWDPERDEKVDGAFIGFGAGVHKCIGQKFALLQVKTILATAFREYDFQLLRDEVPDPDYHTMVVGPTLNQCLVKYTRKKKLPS

Row | SMILES | pIC50 (Trypanosoma cruzi [1]) | pIC50 (Trypanosoma cruzi [2]) | pIC50 (Trypanosoma cruzi [3]) | pIC50 (Trypanosoma cruzi [4]) | pIC50 (Leishmania donovani [5]) | pIC50 (Leishmania donovani [6]) | pIC50 (Leishmania donovani [7]) | pIC50 (Leishmania donovani [8]) | pIC50 [9] | pIC50 [10] | IC50 at 48 h [11] [µM] | pIC50 [12]
1 | COc1ccc([N+](=O)[O-])cc1NC(=O)c1cc(Cl)ccc1O | 4.50 | 4.80 | 5.10 | < 4.30 | 5.10 | 5.70 | 5.80 | 5.00 | 4.60 | 4.60 | 10 | < 4.00
2 | O=C(Nc1ccccc1C(=O)Nc1ccccn1)c1ccco1 | < 4.30 | < 4.30 | < 4.30 | < 4.30 | < 4.30 | < 4.30 | < 4.30 | < 4.30 | 6.60 | 6.30 | > 100 | < 4.00
3 | COc1cccc(Nc2cc(C)nc(-c3ccccn3)n2)c1 | 5.50 | 4.90 | 5.10 | 5.30 | 5.40 | 5.70 | 5.90 | < 4.30 | < 4.40 | < 4.40 | 50.1 | < 4.00
4 | CCCCn1c(=O)c2c(N)onc2n(CCCC)c1=O | 4.60 | 4.50 | 4.60 | 4.60 | < 4.30 | < 4.30 | 4.50 | < 4.30 | 6.20 | 6.30 | 50.1 | 4.10
5 | Nc1nccc(-c2csc(Nc3ccc(Cl)cc3)n2)n1 | 5.90 | < 4.30 | < 4.30 | 5.70 | 5.40 | 6.00 | 6.00 | < 4.30 | < 4.40 | < 4.40 | > 100 | 5.90
6 | NS(=O)(=O)c1ccc(Nc2nccc(-c3cnn4ncccc34)n2)cc1 | 5.60 | 4.80 | 6.10 | 6.50 | 6.10 | 5.70 | 6.00 | 6.60 | 7.10 | 6.80 | > 100 | < 4.00
7 | CC(=O)Nc1ccc(Nc2nccc(-c3cnn4ncccc34)n2)cc1C(F)(F)F | 7.30 | 6.30 | 6.70 | 7.20 | 6.70 | 7.60 | 7.80 | 8.00 | 7.50 | 7.30 | > 100 | 4.50
8 | O=C1OCc2ccc(Nc3nccc(-c4cnn5ncccc45)n3)cc21 | 7.60 | 7.20 | 7.50 | 7.60 | 7.20 | 7.80 | 7.90 | 8.10 | 8.40 | 7.70 | > 100 | < 4.00
9 | Fc1ccc(Nc2nc(-c3ccccn3)cs2)cc1 | 5.60 | 5.30 | 5.30 | 6.00 | 4.70 | 5.00 | 5.20 | < 4.30 | 4.60 | 4.60 | > 100 | 4.80
10 | O=c1nc(NCCCNCc2cc(Br)cc(Br)c2)[nH]c2ccsc12 | 6.20 | 6.20 | 6.40 | 4.60 | 4.80 | 5.30 | 5.60 | 4.80 | 7.00 | 7.00 | 50.1 | 4.50
11 | O=c1cc(NCCCNCc2c[nH]c3ccc(Br)cc23)[nH]c2ccccc12 | < 4.30 | < 4.30 | 4.50 | < 4.30 | < 4.30 | < 4.30 | < 4.30 | < 4.30 | 6.00 | 6.10 | > 100 | < 4.00
12 | Cc1cc(Br)sc1CNCCCNc1cc(=O)c2ccccc2[nH]1 | 5.80 | 6.10 | 6.30 | 4.60 | < 4.30 | 4.60 | 4.70 | 4.70 | 7.20 | 7.00 | 39.8 | 4.20
13 | O=C(NCC1CCCCN1C(=O)c1cccc2ccccc12)c1ccccc1 (centres undefined) | 5.20 | 5.30 | 5.50 | < 4.30 | < 4.30 | < 4.30 | < 4.30 | < 4.30 | 6.40 | 6.40 | > 100 | < 4.00
14 | O=c1cc(NCCCNCc2cc(C(F)(F)F)cs2)[nH]c2ccccc12 | 5.10 | < 4.30 | 5.30 | 4.50 | < 4.30 | 4.40 | 4.60 | 4.70 | 6.50 | 6.40 | 63.1 | 4.60
15 | COc1ccc2nccc(NC(=O)C3(OC)CCN(CC(O)c4ccc5c(c4)OCCO5)CC3)c2n1 (centres undefined) | 6.60 | 6.50 | 6.90 | 4.80 | 5.00 | 4.70 | 5.20 | 4.60 | 6.40 | 6.30 | 39.8 | 6.00
16 | NCc1ccc2c(Cl)cc(Cl)c(O)c2n1 | 5.60 | 5.70 | 5.90 | 5.20 | 5.20 | 5.70 | 5.70 | 4.70 | 6.40 | 6.70 | 25.1 | 4.40
17 | Oc1c(-c2nnc(CCc3ccccc3)[nH]2)ncc2cccnc12 | 6.70 | 6.70 | 6.70 | 4.80 | 6.50 | 5.40 | 5.50 | 4.70 | 6.10 | 5.80 | 39.8 | < 4.00
